{"source": "patent US7919077B2", "about": "“Pharmaceutical compositions comprising CCL2 and use of same for the treatment of inflammation” (Yeda Research and Development Co. Ltd., priority 2006, dated 2011)", "key": {"naïve T cells [1]": {"test_system": "naïve T cells", "assay": "Transwell migration assay, naïve T cells", "format": "cell-based, mice", "conditions": "cells pre-treated 30 min with CCL2 0.1 ng/ml, 3 hours migration", "description": "Stimulation of T cells—Cell stimulation was performed as previously described [Flaishon et al., J Biol Chem. (2001) 276:46701-46706]. Briefly, 1×10^7 T cells were suspended in 1 ml DMEM cell medium containing 10% (v/v) Fetal Calf Serum (FCS). Next, 0.1 ng/ml CCL2 (CytoLab) was added to each tube and the tubes were immediately placed in 37° C. for 30 minutes. Immediately after stimulation, cells were washed and handled as described hereinbelow.\nTranswell migration assay—Chemotaxis was assayed using Transwell chambers as was previously described [Flaishon, L. F., et al., J. Biol. Chem. 276:46701 (2001)]. Naive T cells were suspended for 30 minutes with RPMI medium with or without CCL2 (0.1 ng/ml, Peprotech Inc., Rocky Hill, N.J.), and thereafter placed in the upper chamber of a 24 well Transwell plate, and allowed to migrate towards CXCL12 (SDF-1, 0.1 mg/ml PeproTech, Inc., Rocky Hill, N.J.) or to the secondary lymphoid tissue chemokine (SLC, CCL21, 0.4 mg/ml; PeproTech, Inc., Rocky Hill, N.J.), placed in the lower chamber. Following 3 hours, the number of the migrating cells found in the lower chamber was evaluated by FACS (FACS calibur, BD bioscience). Assay was repeated 3 times and results were analyzed as percent migration, being the number of migrating cells in the lower chamber as a fraction of the input cells in the upper chamber."}, "naïve T cells [2]": {"test_system": "naïve T cells", "assay": "Cytoskeleton rearrangement (actin polymerization), naïve T cells", "format": "cell-based, mice", "conditions": "naïve T cells pre-treated with CCL2 0.1 ng/ml, 15 seconds stimulation", "description": "Cytoskeleton rearrangement—T cells were pre-incubated for 30 minutes in the presence or absence of CCL2 (0.1 ng/ml), and then stimulated with either CXCL12 (0.1 mg/ml PeproTech, Inc., Rocky Hill N.J.), SLC (CCL21, 0.4 mg/ml, PeproTech, Inc., Rocky Hill, N.J.), Rantes (0.1 mg/ml, R&D systems Minneapolis, Minn.), MIP-1β(0.1 mg/ml, R&D systems Minneapolis, Minn.) or Eotoxin (0.1 mg/ml R&D systems Minneapolis, Minn.) for 15 seconds. Cells were then immediately fixed with paraformaldehyde, permeabilized and their intracellular F-actin was stained with FITC-phalloidin (Sigma-Aldrich, St. Louis, Mo.), and then analyzed by flow cytometry to determine the state of their cytoskeleton, as previously described [Flaishon, L. F., et al., J. Biol. Chem. 276:46701 (2001)]."}, "naive lymphocytes": {"test_system": "naive lymphocytes", "assay": "Intravital microscopy of mouse subiliac LN: lymphocyte rolling and sticking in HEVs", "format": "in vivo, C57BL/6 mice", "description": "Intravital microscopy of mouse subiliac LN—Mice were anesthetized by intraperitoneal injection of 1 mg/ml xylazine and 5 mg/ml ketamine. The right femoral artery was catheterized. The left subiliac LN was prepared for IVM as previously described [Carriere et al., Cancer Res. (2005) 65:11639-11648; M'Rini et al., J Exp Med. (2003) 198:1301-1312], and the mouse was then transferred to a customized intravital video microscopy setup (INM 100; Leica Microsystems SA, Rueil-Malmaison, France) equipped with water immersion objectives (HCX APO; Leica Microsystems SA, Rueil-Malmaison, France). Fluorescent events in the LN microcirculation were visualized and recorded by a silicon-intensified target camera (Hamamatsu Photonics, Massy, France) and stored on DVCAM video tapes (DSR-11 Sony, IEC-ASV, Toulouse, France).\nFor visualization of naive lymphocyte interactions with LN vascular endothelium, naïve lymphocytes obtained from single T and B cell suspensions of a control C57BL/6 pool of subiliac, axillary, brachial and mesenteric LNs were incubated in the presence or absence of CCL2 (R&D Systems, Lille, France; 1 ng/ml, 30 minutes, 37° C.), fluorescently labeled by calcein AM (Molecular Probes-Invitrogen, Cergy Pontoise, France; 0.25 microM, 5 min, 37° C.) and then injected into the right femoral artery. Cell behavior in LN venules was assessed as previously described [Carriere et al., supra; M'Rini et al., supra]. The rolling fraction was determined as the percentage of cells that rolled along the vascular lining in the total flux of cells per venule. The sticking fraction was determined as the percentage in rolling cells of cells firmly adherent for at least 10 seconds or 1 minute."}, "[3]": {"test_system": "human T cells interacting with VCAM-1 (VLA-4)", "assay": "Laminar flow adhesion assay on VCAM-1 with co-immobilized CCL21", "format": "cell-based", "conditions": "low dose chemokine pretreatment", "description": "Laminar flow adhesion assays—Purified VCAM-1 or ICAM-1-Fc (both from R&D Systems, Minneapolis, Minn.) were coated with or without CCL21 (R&D Systems) on polystyrene plates as previously described [Grabovsky et al., J Exp Med. (2000) 192:495-506; Sigal et al., J Immunol. (2000) 165:442-452]. The polystyrene plates were each assembled on the lower wall of the flow chamber as previously described [Feigelson et al., J Biol Chem. (2001) 276:13891-13901]. All flow experiments were conducted at 37° C. Cells were washed with cation-free H/H medium, resuspended in binding medium (H/H medium supplemented with 1 mM CaCl2 and 1 mM MgCl2) and perfused through the flow chamber at low shear stress (0.5-0.75 dyn/cm^2) for 2 minutes. Tethers were defined as transient or rolling if cells attached briefly (<2 seconds) to the substrate and as arrests if immediately arrested and remaining stationary for at least 5 seconds of continuous flow. Frequencies of adhesive categories within differently pretreated cells were determined as a percentage of cells flowing immediately over the substrates, as previously described [Grabovsky et al., supra]. To assess resistance to detachment over time, accumulated cells were subjected to a shear stress of 5 dyn/cm^2 for 5 minutes. At the indicated time points, the number of cells that remained bound was expressed relative to T cell population originally accumulated in the first 2 minute period of the assay. Over 90% of cellular tethers to VCAM-1 or ICAM-1 were blocked by pretreating cells with VLA-4 or LFA-1 blockers respectively."}, "effector T cells": {"test_system": "effector T cells", "assay": "Transwell migration of effector T cells (data not shown)", "format": "cell-based, mice", "conditions": "low dose CCL2"}}, "data": [{"substance": "CCL2: mammalian (e.g., human) CCL2 protein, GenBank NM_002982 / NP_002973; murine CCL2 used in the asthma model", "values": [{"measurement": "inhibition of migration of naïve T cells towards CXCL12", "setting": "naïve T cells [1]; FIG. 2a", "result": "40-50%"}, {"measurement": "inhibition of migration of naïve T cells towards CCL21", "setting": "naïve T cells [1]; FIG. 2b", "result": "40-50%"}, {"measurement": "inhibition of CXCL12-induced actin polymerization", "setting": "naïve T cells [2]; FIG. 2c", "result": "40-50%"}, {"measurement": "inhibition of CCL21-induced actin polymerization", "setting": "naïve T cells [2]; FIG. 2d", "result": "40-50%"}, {"measurement": "number of firmly bound lymphocytes in the PLN venular tree", "setting": "naive lymphocytes; 30 minutes after injection of the fluorescent cells, FIGS. 5f-g", "result": "striking reduction"}, {"measurement": "L-selectin mediated rolling in HEVs (rolling fraction)", "setting": "naive lymphocytes; lymphocytes pre-treated with CCL2 1 ng/ml 30 minutes, FIG. 5b", "result": "did not significantly alter"}, {"measurement": "sticking fraction 10 seconds", "setting": "naive lymphocytes; lymphocytes pre-treated with CCL2 1 ng/ml 30 minutes, vs control, FIG. 5c", "result": "comparable"}, {"measurement": "percentage of cells which remained adherent 1 minute after initial arrest", "setting": "naive lymphocytes; lymphocytes pre-treated with CCL2 1 ng/ml 30 minutes, vs control, FIG. 5e", "result": "severe reduction"}, {"measurement": "percentage of cells which remained adherent 30 seconds after initial arrest", "setting": "naive lymphocytes; lymphocytes pre-treated with CCL2 1 ng/ml 30 minutes, vs control, FIG. 5d", "result": "severe reduction"}, {"measurement": "post arrest adhesion strengthening on VCAM-1 (resistance to detachment)", "setting": "[3]; high shear stress 5 dyn/cm^2, FIG. 6d", "result": "failed to develop adhesion strengthening"}, {"measurement": "VLA-4 activation by surface bound CCL21 (arrest on VCAM-1)", "setting": "[3]; shear stress 0.75 dyn/cm^2, FIG. 6c", "result": "did not interfere"}, {"measurement": "CCL21 induced transwell migration of effector cells", "setting": "effector T cells", "result": "down-regulated"}, {"measurement": "CXCL12 induced transwell migration of effector cells", "setting": "effector T cells", "result": "down-regulated"}]}]}
